For 29 compounds, IC50 results are on record in patent US12344597B2, “Alkoxy-substituted pyridinyl derivatives as LPA1 receptor antagonists and their use in the treatment of fibrosis” (IDORSIA PHARMACEUTICALS LTD, priority 2018, dated 2025).

Sequence of human LPA1 receptor (Q92633 whole entry, the tested form may be a part): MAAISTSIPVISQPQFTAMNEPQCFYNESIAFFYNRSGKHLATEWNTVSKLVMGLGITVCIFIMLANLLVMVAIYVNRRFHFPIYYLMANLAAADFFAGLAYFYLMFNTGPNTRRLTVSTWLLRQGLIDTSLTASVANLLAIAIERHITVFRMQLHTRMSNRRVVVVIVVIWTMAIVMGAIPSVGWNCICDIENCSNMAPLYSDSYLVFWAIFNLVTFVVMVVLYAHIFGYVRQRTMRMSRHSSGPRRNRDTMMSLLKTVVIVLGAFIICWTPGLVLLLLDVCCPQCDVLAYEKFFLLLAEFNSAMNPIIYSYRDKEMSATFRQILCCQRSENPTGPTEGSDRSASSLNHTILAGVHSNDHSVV

The target of the experiment is human LPA1 receptor (Homo sapiens (Human), UniProt Q92633). The experiment is described as follows: Beta-arrestin recruitment assay to determine IC50 values for human LPAR1. The note with it: antagonist mode, Tango EDG2-bla U2OS cells, LPA 18:1 500 nM final. The format is cell-based. In short, it runs like this:
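Tango EDG2-bla U2OS cells: LPA-driven beta-arrestin/TEV protease recruitment releases Gal4-VP16, inducing beta-lactamase reporter read with live-cell substrate. Cells seeded 20 h at 37 °C beforehand. IC50 is antagonist concentration inhibiting 50% of maximal response.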
(In general: Recruitment of arrestin is a read-out of receptor activation apart from second messengers.)
By IC50 is commonly meant the midpoint of a concentration-inhibition curve. In turn, `Cc1ccc(NC(=O)C2(c3ccccc3C(C)C)CCN(C(=O)Cn3cnnn3)CC2)c(OC(F)F)n1` [Ex 12-20, 1-(2-(1H-tetrazol-1-yl)acetyl)-N-(2-(difluoromethoxy)-6-methylpyridin-3-yl)-4-(2-isopropylphenyl)piperidine-4-carboxamide] returned a concentration for half-maximal inhibition (IC50) of 0.002 µM. Under `Cc1ccc(NC(=O)C2(c3ccccc3C(C)C)CCN(C(=O)Cn3nccn3)CC2)c(OC(F)F)n1` [Ex 12-22, 1-(2-(2H-1,2,3-triazol-2-yl)acetyl)-N-(2-(difluoromethoxy)-6-methylpyridin-3-yl)-4-(2-isopropylphenyl)piperidine-4-carboxamide] stands 0.007 µM; under `Cc1ccc(NC(=O)C2(c3ccccc3C(C)C)CN(C(=O)Cn3cnnc3)C2)c(OC(F)F)n1` [Ex 12-23, 1-(2-(4H-1,2,4-triazol-4-yl)acetyl)-N-(2-(difluoromethoxy)-6-methylpyridin-3-yl)-3-(2-isopropylphenyl)azetidine-3-carboxamide], 0.021 µM; under `Cc1ccc(NC(=O)C2(c3ccccc3C(C)C)CN(C(=O)Cc3cc(O)n[nH]3)C2)c(OC(F)F)n1` [Ex 12-24, N-(2-(difluoromethoxy)-6-methylpyridin-3-yl)-1-(2-(3-hydroxy-1H-pyrazol-5-yl)acetyl)-3-(2-isopropylphenyl)azetidine-3-carboxamide], 0.019 µM.

On to `Cc1ccc(NC(=O)C2(c3ccccc3C(C)C)CCN(C(=O)Cc3cc(O)n[nH]3)CC2)c(OC(F)F)n1` [Ex 12-25, N-(2-(difluoromethoxy)-6-methylpyridin-3-yl)-1-(2-(3-hydroxy-1H-pyrazol-5-yl)acetyl)-4-(2-isopropylphenyl)piperidine-4-carboxamide], for which the midpoint of inhibition, the IC50, lay at 0.015 µM. `Cc1ccc(NC(=O)C2(c3ccccc3C(C)C)CCN(C(=O)Cc3c[nH]nc3O)CC2)c(OC(F)F)n1` [Ex 12-27, N-(2-(difluoromethoxy)-6-methylpyridin-3-yl)-1-(2-(3-hydroxy-1H-pyrazol-4-yl)acetyl)-4-(2-isopropylphenyl)piperidine-4-carboxamide] had an IC50 of 0.004 µM. The compound `Cc1ccc(NC(=O)C2(c3ccccc3C(C)C)CN(C(=O)CCn3cnnc3)C2)c(OC(F)F)n1` [Ex 12-28, 1-(3-(4H-1,2,4-triazol-4-yl)propanoyl)-N-(2-(difluoromethoxy)-6-methylpyridin-3-yl)-3-(2-isopropylphenyl)azetidine-3-carboxamide] registered a 50% inhibitory concentration (IC50) of 0.222 µM. As for `Cc1ccc(NC(=O)C2(c3ccccc3C(C)C)CN(C(=O)CCc3cc(O)no3)C2)c(OC(F)F)n1` [Ex 12-29, N-(2-(difluoromethoxy)-6-methylpyridin-3-yl)-1-(3-(3-hydroxyisoxazol-5-yl)propanoyl)-3-(2-isopropylphenyl)azetidine-3-carboxamide], the figure is 0.032 µM; as for `Cc1ccc(NC(=O)C2(c3ccccc3C(C)C)CN(C(=O)CCCc3nnn[nH]3)C2)c(OC(F)F)n1` [Ex 12-30, 1-(4-(1H-tetrazol-5-yl)butanoyl)-N-(2-(difluoromethoxy)-6-methylpyridin-3-yl)-3-(2-isopropylphenyl)azetidine-3-carboxamide], 0.025 µM; as for `Cc1ccc(NC(=O)C2(c3ccccc3C(C)C)CN(C(=O)CC3CCN(C)CC3)C2)c(OC(F)F)n1` [Ex 12-31, N-(2-(difluoromethoxy)-6-methylpyridin-3-yl)-3-(2-isopropylphenyl)-1-(2-(1-methylpiperidin-4-yl)acetyl)azetidine-3-carboxamide], 0.337 µM. For `Cc1ccc(NC(=O)C2(c3ccccc3C(C)C)CN(C(=O)[C@H](C)NC(=O)OC(C)(C)C)C2)c(OC(F)F)n1` [Ex 12-32, tert-butyl (S)-(1-(3-((2-(difluoromethoxy)-6-methylpyridin-3-yl)carbamoyl)-3-(2-isopropylphenyl)azetidin-1-yl)-1-oxopropan-2-yl)carbamate], it took 1.72 µM to reach half-maximal inhibition (IC50).

For `Cc1ccc(NC(=O)C2(c3ccccc3C(C)C)CN(C(=O)[C@H](C)N)C2)c(OC(F)F)n1` [Ex 12-33, 1-(L-alanyl)-N-(2-(difluoromethoxy)-6-methylpyridin-3-yl)-3-(2-isopropylphenyl)azetidine-3-carboxamide], the midpoint of inhibition, the IC50, lay at 0.01 µM. This IC50 is about 170-fold lower than that of the compound before. For the compound `Cc1ccc(NC(=O)C2(c3ccccc3C(C)C)CN(C(=O)C[C@H](O)C(=O)O)C2)c(OC(F)F)n1` [Ex 12-34, (S)-4-(3-((2-(difluoromethoxy)-6-methylpyridin-3-yl)carbamoyl)-3-(2-isopropylphenyl)azetidin-1-yl)-2-hydroxy-4-oxobutanoic acid], the midpoint of inhibition, the IC50, lay at 0.033 µM. Compared with the last compound, the IC50 is about 3.3-fold higher.

Take `Cc1ccc(NC(=O)C2(c3ccccc3C(C)C)CN(C(=O)C[C@@H](O)C(=O)O)C2)c(OC(F)F)n1` [Ex 12-35, (R)-4-(3-((2-(difluoromethoxy)-6-methylpyridin-3-yl)carbamoyl)-3-(2-isopropylphenyl)azetidin-1-yl)-2-hydroxy-4-oxobutanoic acid]: the IC50 came to 0.041 µM. On to `Cc1ccc(NC(=O)C2(c3ccccc3C(C)C)CCN(C(=O)C[C@@H]3OC(C)(C)OC3=O)CC2)c(OC(F)F)n1` [Ex 12-36, (S)-N-(2-(difluoromethoxy)-6-methylpyridin-3-yl)-1-(2-(2,2-dimethyl-5-oxo-1,3-dioxolan-4-yl)acetyl)-4-(2-isopropylphenyl)piperidine-4-carboxamide], for which 0.021 µM corresponded to half-maximal inhibition (IC50). As for `Cc1ccc(NC(=O)C2(c3ccccc3C(C)C)CCN(C(=O)C[C@H](O)C(=O)O)CC2)c(OC(F)F)n1` [Ex 12-37, (S)-4-(4-((2-(difluoromethoxy)-6-methylpyridin-3-yl)carbamoyl)-4-(2-isopropylphenyl)piperidin-1-yl)-2-hydroxy-4-oxobutanoic acid], the figure is 0.022 µM; as for `Cc1ccc(NC(=O)C2(c3ccccc3C(C)C)CN(C(=O)CC3(N)COC3)C2)c(OC(F)F)n1` [Ex 12-38, 1-(2-(3-aminooxetan-3-yl)acetyl)-N-(2-(difluoromethoxy)-6-methylpyridin-3-yl)-3-(2-isopropylphenyl)azetidine-3-carboxamide], 0.025 µM; as for `Cc1ccc(NC(=O)C2(c3ccccc3C(C)C)CN(C(=O)[C@H](CO)NC(=O)OC(C)(C)C)C2)c(OC(F)F)n1` [Ex 12-39, tert-butyl (S)-(1-(3-((2-(difluoromethoxy)-6-methylpyridin-3-yl)carbamoyl)-3-(2-isopropylphenyl)azetidin-1-yl)-3-hydroxy-1-oxopropan-2-yl)carbamate], 0.481 µM. `Cc1ccc(NC(=O)C2(c3ccccc3C(C)C)CN(C(=O)[C@@H](N)CO)C2)c(OC(F)F)n1` [Ex 12-40, 1-(L-seryl)-N-(2-(difluoromethoxy)-6-methylpyridin-3-yl)-3-(2-isopropylphenyl)azetidine-3-carboxamide] came in with an IC50 of 0.06 µM. As for `Cc1ccc(NC(=O)C2(c3ccccc3C(C)C)CN(C(=O)C3C[C@H](O)CN3)C2)c(OC(F)F)n1` (stereo partly drawn) [Ex 12-41, N-(2-(difluoromethoxy)-6-methylpyridin-3-yl)-1-((4S)-4-hydroxypyrrolidine-2-carbonyl)-3-(2-isopropylphenyl)azetidine-3-carboxamide], the 50% inhibitory concentration (IC50) was 0.069 µM.

As to `Cc1ccc(NC(=O)C2(c3ccccc3C(C)C)CN(C(=O)[C@H]3CNCCO3)C2)c(OC(F)F)n1` [Ex 12-42, (R)-N-(2-(difluoromethoxy)-6-methylpyridin-3-yl)-3-(2-isopropylphenyl)-1-(morpholine-2-carbonyl)azetidine-3-carboxamide], half-maximal inhibition (IC50) required 0.071 µM. The compound `Cc1ccc(NC(=O)C2(c3ccccc3C(C)C)CN(C(=O)C3COCCN3)C2)c(OC(F)F)n1` (centres unmarked) [Ex 12-43, N-(2-(difluoromethoxy)-6-methylpyridin-3-yl)-3-(2-isopropylphenyl)-1-(morpholine-3-carbonyl)azetidine-3-carboxamide] displayed an IC50 of 0.106 µM. Compound `Cc1ccc(NC(=O)C2(c3ccccc3C(C)C)CN(C(=O)C[C@H]3COCCN3)C2)c(OC(F)F)n1` [Ex 12-44, (S)-N-(2-(difluoromethoxy)-6-methylpyridin-3-yl)-3-(2-isopropylphenyl)-1-(2-(morpholin-3-yl)acetyl)azetidine-3-carboxamide] had an IC50 of 0.079 µM. This IC50 and that of the compound before are within 1.5-fold of each other. Regarding `Cc1ccc(NC(=O)C2(c3ccccc3C(C)C)CN(C(=O)C[C@@H]3COCCN3)C2)c(OC(F)F)n1` [Ex 12-45, (R)-N-(2-(difluoromethoxy)-6-methylpyridin-3-yl)-3-(2-isopropylphenyl)-1-(2-(morpholin-3-yl)acetyl)azetidine-3-carboxamide], the IC50 is 0.061 µM. For `Cc1ccc(NC(=O)C2(c3ccccc3C(C)C)CN(C(=O)CC3NCCNC3=O)C2)c(OC(F)F)n1` (centres unmarked) [Ex 12-46, N-(2-(difluoromethoxy)-6-methylpyridin-3-yl)-3-(2-isopropylphenyl)-1-(2-(3-oxopiperazin-2-yl)acetyl)azetidine-3-carboxamide], the IC50 came to 0.556 µM. Against the preceding compound, the IC50 is about 9.1-fold higher. In turn, `COCCN(CC(=O)N1CCC(C(=O)Nc2ccc(C)nc2OC(F)F)(c2ccccc2C(C)C)CC1)C(=O)OC(C)(C)C` [Ex 12-47, tert-butyl (2-(4-((2-(difluoromethoxy)-6-methylpyridin-3-yl)carbamoyl)-4-(2-isopropylphenyl)piperidin-1-yl)-2-oxoethyl)(2-methoxyethyl)carbamate] gave an IC50 of 0.059 µM. The compound `COCCNCC(=O)N1CCC(C(=O)Nc2ccc(C)nc2OC(F)F)(c2ccccc2C(C)C)CC1` [Ex 12-48, N-(2-(difluoromethoxy)-6-methylpyridin-3-yl)-4-(2-isopropylphenyl)-1-((2-methoxyethyl)glycyl)piperidine-4-carboxamide] showed a half-inhibitory concentration (IC50) of 0.009 µM. In turn, `Cc1ccc(NC(=O)C2(c3ccccc3C(C)C)CCN(C(=O)CN(CCO)C(=O)OC(C)(C)C)CC2)c(OC(F)F)n1` [Ex 12-49, tert-butyl (2-(4-((2-(difluoromethoxy)-6-methylpyridin-3-yl)carbamoyl)-4-(2-isopropylphenyl)piperidin-1-yl)-2-oxoethyl)(2-hydroxyethyl)carbamate] registered a half-maximal inhibitory concentration (IC50) of 0.03 µM. `Cc1ccc(NC(=O)C2(c3ccccc3C(C)C)CCN(C(=O)CNCCO)CC2)c(OC(F)F)n1` [Ex 12-50, N-(2-(difluoromethoxy)-6-methylpyridin-3-yl)-1-((2-hydroxyethyl)glycyl)-4-(2-isopropylphenyl)piperidine-4-carboxamide] yielded an IC50 of 0.009 µM.
